Measurements: ChEMBL document CHEMBL1201862, “PubChem BioAssay data set” (2004)
Active and inactive are the calls of the source.

Experiments:
Paired box protein Pax-8 = Paired box protein Pax-8 (Homo sapiens, UniProt Q06710); assay: PAX8 transcriptional activity inhibition in RMG-I – RMG-I cells, luciferase, cherry-pick, dose response (AID 687027); type: functional, cell-based;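 also: luciferase reporter driven by Pax8 target thyroperoxidase promoter measured by SteadyGlo luminescence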
Cytochrome P450 1A2 = target: T1, Cytochrome P450 1A2 (Homo sapiens, UniProt P05177);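 also: PubChem cytochrome P450 panel assay, CYP1A2 panel member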
T1 sequence (P05177 whole entry): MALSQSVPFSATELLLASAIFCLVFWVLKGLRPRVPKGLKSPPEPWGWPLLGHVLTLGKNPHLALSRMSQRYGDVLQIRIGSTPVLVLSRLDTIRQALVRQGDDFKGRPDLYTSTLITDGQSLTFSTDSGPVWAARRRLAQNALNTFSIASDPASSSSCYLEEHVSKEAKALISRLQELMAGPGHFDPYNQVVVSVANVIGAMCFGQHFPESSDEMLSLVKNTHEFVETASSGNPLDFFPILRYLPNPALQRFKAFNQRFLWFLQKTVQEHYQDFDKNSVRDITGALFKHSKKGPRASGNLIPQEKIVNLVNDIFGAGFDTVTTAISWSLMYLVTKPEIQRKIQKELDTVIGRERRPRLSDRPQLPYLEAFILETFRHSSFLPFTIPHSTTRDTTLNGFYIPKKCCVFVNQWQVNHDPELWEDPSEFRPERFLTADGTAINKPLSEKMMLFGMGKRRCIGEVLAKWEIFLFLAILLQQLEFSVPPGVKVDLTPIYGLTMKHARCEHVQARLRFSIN

Cytochrome P450 2C9 = Cytochrome P450 2C9 (Homo sapiens, UniProt P11712)
Sequence of Cytochrome P450 2C9 (P11712 whole entry): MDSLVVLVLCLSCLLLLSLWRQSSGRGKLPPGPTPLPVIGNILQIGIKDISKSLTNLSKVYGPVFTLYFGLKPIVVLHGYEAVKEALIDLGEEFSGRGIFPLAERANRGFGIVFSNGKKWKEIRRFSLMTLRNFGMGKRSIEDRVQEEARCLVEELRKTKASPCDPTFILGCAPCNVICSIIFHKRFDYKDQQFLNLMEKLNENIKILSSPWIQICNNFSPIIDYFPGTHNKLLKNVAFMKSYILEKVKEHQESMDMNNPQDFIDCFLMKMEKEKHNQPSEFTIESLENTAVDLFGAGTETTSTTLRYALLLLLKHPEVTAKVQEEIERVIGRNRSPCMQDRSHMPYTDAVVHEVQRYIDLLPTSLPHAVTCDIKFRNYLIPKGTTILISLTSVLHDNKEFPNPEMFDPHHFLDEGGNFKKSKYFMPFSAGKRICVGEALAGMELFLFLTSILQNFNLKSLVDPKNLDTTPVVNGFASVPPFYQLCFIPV

[1] = NIH3T3 cell viability loss – ATP luminescence, mouse fibroblasts, counter-screen, dose response (AID 2010); type: functional, cell-based;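 also: cells exposed to compound for about 90 hours before reading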
[2] = Trypanosoma cruzi growth suppression in host cells – NIH3T3 host cells, beta-gal luminescence, confirmation (AID 2044); type: functional, cell-based;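 also: intracellular parasites grown in NIH/3T3 mouse fibroblasts as host cells; luminescent beta-galactosidase reporter signal from transgenic T. cruzi replicating inside host cells; inhibitors lower the luminescence signal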
[3] = viability of uninfected HEp-2 cells – cell-based, HTS, cytotoxicity control for RSV inhibitor project, dose response (AID 2410); type: functional; settings: human respiratory syncytial virus
[4] = target: T2, Heat shock factor protein 1 (Mus musculus, UniProt P38532); assay: enhancement of HSF1-driven luciferase signal – cell-based, NIH3T3, luminescence, dose retest, confirmation (AID 435004); type: functional;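 also: stress induced by proteasome inhibitor MG132 added 30 min after compound; luciferase reporter driven by HSF1 response element in NIH3T3 cells; actives raise luminescence as potentiators of the MG132 stress response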
T2 sequence (P38532 whole entry): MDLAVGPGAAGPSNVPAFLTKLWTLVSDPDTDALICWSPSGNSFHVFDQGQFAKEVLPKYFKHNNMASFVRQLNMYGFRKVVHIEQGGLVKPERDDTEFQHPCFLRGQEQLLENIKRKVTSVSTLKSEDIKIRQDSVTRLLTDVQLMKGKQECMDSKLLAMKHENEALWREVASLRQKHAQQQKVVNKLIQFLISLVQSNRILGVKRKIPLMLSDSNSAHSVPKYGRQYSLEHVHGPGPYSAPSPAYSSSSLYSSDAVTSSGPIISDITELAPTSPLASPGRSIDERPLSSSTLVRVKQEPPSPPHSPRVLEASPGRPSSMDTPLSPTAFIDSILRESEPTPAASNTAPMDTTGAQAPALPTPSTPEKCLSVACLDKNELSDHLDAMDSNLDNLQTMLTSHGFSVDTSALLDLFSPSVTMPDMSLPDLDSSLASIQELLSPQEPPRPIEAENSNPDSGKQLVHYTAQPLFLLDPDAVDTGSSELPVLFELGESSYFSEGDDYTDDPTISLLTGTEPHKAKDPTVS

[5] = target: T3, Corticotropin-releasing factor receptor 2/Corticotropin-releasing factor-binding protein (Homo sapiens, UniProt P24387+Q13324); assay: Dose Response confirmation of uHTS hits for small molecule antagonists of the CRF-binding protein and CRF-R2 receptor complex.; type: functional; settings: read-out: IC50_Mean
T3 sequence (Q13324 whole entry): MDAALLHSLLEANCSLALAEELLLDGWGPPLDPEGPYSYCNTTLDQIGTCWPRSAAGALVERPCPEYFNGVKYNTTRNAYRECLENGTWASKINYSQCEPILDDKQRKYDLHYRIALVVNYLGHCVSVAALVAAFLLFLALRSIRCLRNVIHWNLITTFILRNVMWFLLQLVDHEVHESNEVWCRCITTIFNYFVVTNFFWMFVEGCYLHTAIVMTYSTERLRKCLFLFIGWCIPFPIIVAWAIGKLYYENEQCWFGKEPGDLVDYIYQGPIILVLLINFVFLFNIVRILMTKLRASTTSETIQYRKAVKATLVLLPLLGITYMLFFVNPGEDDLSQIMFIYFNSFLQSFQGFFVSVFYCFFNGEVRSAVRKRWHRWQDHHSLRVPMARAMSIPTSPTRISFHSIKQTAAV
T3 sequence (P24387 whole entry): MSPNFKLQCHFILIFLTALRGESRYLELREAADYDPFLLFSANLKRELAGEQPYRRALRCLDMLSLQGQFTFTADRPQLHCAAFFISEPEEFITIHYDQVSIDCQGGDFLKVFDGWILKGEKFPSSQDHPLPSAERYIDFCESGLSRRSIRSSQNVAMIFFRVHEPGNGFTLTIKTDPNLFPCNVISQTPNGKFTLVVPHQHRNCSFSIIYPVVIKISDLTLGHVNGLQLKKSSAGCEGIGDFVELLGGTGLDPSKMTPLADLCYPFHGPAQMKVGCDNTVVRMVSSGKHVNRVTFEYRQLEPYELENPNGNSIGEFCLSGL

[6] = target: T3, Corticotropin-releasing factor receptor 2/Corticotropin-releasing factor-binding protein; assay: activators of CRF receptor 2 with binding protein – uHTS hits, confirmation (AID 602473); type: functional; settings: read-out: EC50_Mean
Cytochrome P450 3A4 = Cytochrome P450 3A4 (Homo sapiens, UniProt P08684);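 also: CYP3A4 tested as one member of a cytochrome P450 panel screen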
Sequence of Cytochrome P450 3A4 (P08684 whole entry): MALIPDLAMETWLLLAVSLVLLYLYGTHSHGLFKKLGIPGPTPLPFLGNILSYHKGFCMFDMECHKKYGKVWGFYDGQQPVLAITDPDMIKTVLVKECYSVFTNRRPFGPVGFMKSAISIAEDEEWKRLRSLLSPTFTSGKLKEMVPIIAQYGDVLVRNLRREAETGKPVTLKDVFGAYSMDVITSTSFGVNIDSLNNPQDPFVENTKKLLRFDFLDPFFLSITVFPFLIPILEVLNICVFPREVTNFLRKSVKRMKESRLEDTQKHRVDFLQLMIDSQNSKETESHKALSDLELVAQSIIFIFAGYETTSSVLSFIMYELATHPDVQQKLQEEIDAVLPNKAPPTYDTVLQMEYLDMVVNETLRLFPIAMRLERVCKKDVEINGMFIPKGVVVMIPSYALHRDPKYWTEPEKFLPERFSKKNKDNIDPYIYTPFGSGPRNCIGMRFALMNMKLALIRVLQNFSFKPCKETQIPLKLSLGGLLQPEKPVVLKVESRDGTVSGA

Sequence of Paired box protein Pax-8 (Q06710 whole entry): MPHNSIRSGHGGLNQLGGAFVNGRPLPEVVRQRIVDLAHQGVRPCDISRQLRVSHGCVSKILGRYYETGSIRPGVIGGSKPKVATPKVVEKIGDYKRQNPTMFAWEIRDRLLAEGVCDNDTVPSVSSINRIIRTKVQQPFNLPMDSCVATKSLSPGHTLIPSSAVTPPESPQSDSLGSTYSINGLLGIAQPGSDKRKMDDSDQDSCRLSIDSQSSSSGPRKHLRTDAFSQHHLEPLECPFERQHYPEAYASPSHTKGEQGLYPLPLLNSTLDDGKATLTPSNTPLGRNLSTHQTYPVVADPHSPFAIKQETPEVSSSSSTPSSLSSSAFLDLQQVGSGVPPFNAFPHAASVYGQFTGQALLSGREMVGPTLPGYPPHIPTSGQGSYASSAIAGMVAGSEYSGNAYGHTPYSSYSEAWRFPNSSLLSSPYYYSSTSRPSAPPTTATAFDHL

Compound: COc1cc(-c2cnc3c(NC=O)cc(-c4ccccc4)cn23)cc(OC)c1OC
- AC50 (Paired box protein Pax-8): 2.79 µM (active)

Compound: Cc1ccc(CS(=O)(=O)CCC(=O)NCc2cccs2)cc1
- AC50 (Cytochrome P450 1A2): 15.8 µM (inconclusive)
- AC50 (Cytochrome P450 2C9): 5.01 µM (inconclusive)

Compound: Cn1c(CNC(=O)Nc2ccccc2)nnc1SCc1ccccc1
- AC50 (Cytochrome P450 1A2): 25.1 µM (inconclusive)

Compound: Fc1ccc(CCNCc2ccc(Cl)c(Cl)c2)cc1
- EC50 [1]: > 30 µM (not active)
- EC50 [2]: 0.122 µM (active)
- AC50 (Cytochrome P450 2C9): 17.8 µM (inconclusive)

Compound: Cc1ccc([N+](=O)[O-])cc1NC(=O)CN(C)CCOc1ccccc1
- CC50 [3]: 24.3 µM (active)

Compound: COc1cccc(CNC(=O)Cn2nc(C)c([N+](=O)[O-])c2C)c1
- EC50 [4]: > 260 µM (inactive)

Compound: Clc1ccc(OCCn2c(-c3ccco3)nc3ccccc32)cc1
- EC50 [4]: 12 µM (active)

Compound: CC(C)(C)c1ccc(C(=O)Nc2ccc(S(N)(=O)=O)cc2)cc1
- CC50 [3]: 20.1 µM (active)

Compound: CC1=C(C(=O)OC(C)(C)C)C(c2cccc3ccccc23)NC(=O)N1 (stereo not drawn)
- IC50 [5]: > 47.1 µM (inactive)
- EC50 [6]: > 53 µM (inactive)

Compound: Cc1nc(SCCOc2ccc(F)cc2)c2ccccc2n1
- EC50 [4]: 38.7 µM (active)

Compound: CCCN(C(=O)CSc1n[nH]c(-c2ccc(OC)cc2)n1)c1c(N)n(Cc2ccccc2)c(=O)[nH]c1=O
- IC50 [5]: > 47.1 µM (inactive)
- EC50 [6]: > 53 µM (inactive)

Compound: Cc1ccc(C2CC(C(F)F)n3ncc(C(=O)Nc4c(C)nn(Cc5c(F)cccc5Cl)c4C)c3N2)cc1 (stereo not drawn)
- CC50 [3]: 19.9 µM (active)

Compound: CC(=O)CSc1ncnc2sc3c(c12)CCC3
- CC50 [3]: 32.7 µM (active)

Compound: COc1ccc(C2=NN(C)/C(=N\Cc3ccccc3)SC2)cc1
- IC50 [5]: > 47.1 µM (inactive)
- EC50 [6]: > 53 µM (inactive)

Compound: O=C(COC(=O)C1CCN(S(=O)(=O)c2cccc3cccnc23)CC1)c1ccc([N+](=O)[O-])cc1
- EC50 [4]: > 260 µM (inactive)

Compound: O=[N+]([O-])c1ccc(NC(S)=NC(=NCS(=O)(=O)c2ccccc2)c2ccccc2)cc1
- CC50 [3]: 11.1 µM (active)

Compound: C=C(C)Cn1c(SCC(=O)O)nnc1-c1ccc(OC)cc1
- EC50 [4]: > 260 µM (inactive)

Compound: Cc1ccc(S(=O)(=O)Nc2ccc3c(c2)C(=O)N([C@@H](C)CO)C[C@@H](C)[C@@H](CN(C)S(=O)(=O)c2ccc(Cl)cc2)OCCCC[C@@H](C)O3)cc1
- AC50 (Paired box protein Pax-8): 10.4 µM (active)

Compound: Cc1ccc(/C=C/c2nnc(-c3ccc(C)cc3)o2)cc1
- AC50 (Cytochrome P450 1A2): 4.47 µM (inconclusive)
- AC50 (Cytochrome P450 2C9): 5.62 µM (inconclusive)
- AC50 (Cytochrome P450 3A4): 10 µM (inconclusive)

Compound: O=C(Nc1cc2c(oc1=O)CCCC2=O)c1ccc(Cl)cc1
- AC50 (Cytochrome P450 1A2): 14.1 µM (inconclusive)

Compound: N#Cc1nc(NCC(F)F)nc(Nc2cc(F)cc(F)c2)n1
- AC50 (Paired box protein Pax-8): 5.01 µM (active)

Compound: Cc1cc(C)cc(OCC(=O)O/N=C(\N)Cc2ccc([N+](=O)[O-])cc2)c1
- EC50 [4]: > 260 µM (inactive)

Compound: CSCCC(NS(=O)(=O)c1cccc(C(F)(F)F)c1)C(=O)N(C)CCOc1ccc(Cl)cc1 (stereo not drawn)
- EC50 [4]: > 260 µM (inactive)

Compound: CCOC(=O)c1c(C)[nH]c(C)c1S(=O)(=O)N1CCN(c2ccc(F)cc2)CC1
- EC50 [4]: > 260 µM (inactive)

Compound: CCOC(=O)COc1cc(OCC(=O)OCC)c2c(=O)cc(-c3ccccc3)oc2c1
- AC50 (Cytochrome P450 1A2): 15.8 µM (inconclusive)
